The values that follow come from patent US9216999B2, “Substituted pyrrolo[2,3-h][1,6]naphthyridines and compositions thereof as JAK inhibitors” (priority 2011, dated 2015).

Like-named read-outs stand apart in the source and are kept apart here. Where only a bound is given, the exact number is not on record here.

Common to all, as to format: biochemical
The target in test [1] is JAK1 (Homo sapiens (Human), UniProt P23458). Briefly: Enzyme assay (Assay Example^a 1), JAK1. The conditions noted are these: ATP 100 μM.
Test [2] concerns the target JAK2 (Homo sapiens (Human), UniProt O60674). Briefly: Enzyme assay (Assay Example^a 1), JAK2. Particulars: ATP 100 μM.
For test [3], the target named is JAK3 (Homo sapiens (Human), UniProt P52333). Briefly: Enzyme assay (Assay Example^a 1), JAK3.
For test [4], the target named is Tyk2 (Homo sapiens (Human), UniProt P29597). Briefly: Enzyme assay (Assay Example^a 1), Tyk2. Particulars: ATP 100 μM.
Chain of Tyk2 (P29597 whole entry): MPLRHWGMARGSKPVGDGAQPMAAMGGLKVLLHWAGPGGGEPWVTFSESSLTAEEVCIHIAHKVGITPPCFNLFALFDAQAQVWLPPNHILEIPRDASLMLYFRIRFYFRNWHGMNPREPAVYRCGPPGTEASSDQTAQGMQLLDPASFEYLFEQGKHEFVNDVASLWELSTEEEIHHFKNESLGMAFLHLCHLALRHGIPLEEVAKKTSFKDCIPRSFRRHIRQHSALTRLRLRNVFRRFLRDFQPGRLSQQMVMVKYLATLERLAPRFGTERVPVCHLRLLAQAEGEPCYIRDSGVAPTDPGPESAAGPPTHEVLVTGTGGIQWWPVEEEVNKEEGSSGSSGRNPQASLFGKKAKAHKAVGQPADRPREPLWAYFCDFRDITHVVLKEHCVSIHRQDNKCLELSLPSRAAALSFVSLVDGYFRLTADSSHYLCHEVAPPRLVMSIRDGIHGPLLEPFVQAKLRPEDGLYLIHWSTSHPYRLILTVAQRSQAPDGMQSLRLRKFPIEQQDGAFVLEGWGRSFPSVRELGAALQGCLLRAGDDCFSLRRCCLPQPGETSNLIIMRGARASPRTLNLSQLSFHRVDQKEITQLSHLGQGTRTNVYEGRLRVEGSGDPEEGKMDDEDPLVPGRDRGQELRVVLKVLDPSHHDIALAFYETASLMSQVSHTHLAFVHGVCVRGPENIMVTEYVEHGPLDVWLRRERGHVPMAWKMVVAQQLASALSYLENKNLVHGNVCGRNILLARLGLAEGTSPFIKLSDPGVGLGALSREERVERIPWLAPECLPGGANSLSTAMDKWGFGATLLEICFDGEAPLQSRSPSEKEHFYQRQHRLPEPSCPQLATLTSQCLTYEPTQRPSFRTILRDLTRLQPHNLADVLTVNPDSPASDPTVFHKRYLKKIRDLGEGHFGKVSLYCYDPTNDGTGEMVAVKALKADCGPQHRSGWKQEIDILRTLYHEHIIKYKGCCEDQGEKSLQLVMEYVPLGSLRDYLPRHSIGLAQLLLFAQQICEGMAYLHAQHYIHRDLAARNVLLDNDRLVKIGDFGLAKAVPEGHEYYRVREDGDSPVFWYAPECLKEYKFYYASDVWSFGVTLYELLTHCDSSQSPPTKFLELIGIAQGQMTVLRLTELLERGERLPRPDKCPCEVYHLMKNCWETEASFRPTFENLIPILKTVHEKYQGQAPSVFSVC

Chain of JAK3 (P52333 whole entry): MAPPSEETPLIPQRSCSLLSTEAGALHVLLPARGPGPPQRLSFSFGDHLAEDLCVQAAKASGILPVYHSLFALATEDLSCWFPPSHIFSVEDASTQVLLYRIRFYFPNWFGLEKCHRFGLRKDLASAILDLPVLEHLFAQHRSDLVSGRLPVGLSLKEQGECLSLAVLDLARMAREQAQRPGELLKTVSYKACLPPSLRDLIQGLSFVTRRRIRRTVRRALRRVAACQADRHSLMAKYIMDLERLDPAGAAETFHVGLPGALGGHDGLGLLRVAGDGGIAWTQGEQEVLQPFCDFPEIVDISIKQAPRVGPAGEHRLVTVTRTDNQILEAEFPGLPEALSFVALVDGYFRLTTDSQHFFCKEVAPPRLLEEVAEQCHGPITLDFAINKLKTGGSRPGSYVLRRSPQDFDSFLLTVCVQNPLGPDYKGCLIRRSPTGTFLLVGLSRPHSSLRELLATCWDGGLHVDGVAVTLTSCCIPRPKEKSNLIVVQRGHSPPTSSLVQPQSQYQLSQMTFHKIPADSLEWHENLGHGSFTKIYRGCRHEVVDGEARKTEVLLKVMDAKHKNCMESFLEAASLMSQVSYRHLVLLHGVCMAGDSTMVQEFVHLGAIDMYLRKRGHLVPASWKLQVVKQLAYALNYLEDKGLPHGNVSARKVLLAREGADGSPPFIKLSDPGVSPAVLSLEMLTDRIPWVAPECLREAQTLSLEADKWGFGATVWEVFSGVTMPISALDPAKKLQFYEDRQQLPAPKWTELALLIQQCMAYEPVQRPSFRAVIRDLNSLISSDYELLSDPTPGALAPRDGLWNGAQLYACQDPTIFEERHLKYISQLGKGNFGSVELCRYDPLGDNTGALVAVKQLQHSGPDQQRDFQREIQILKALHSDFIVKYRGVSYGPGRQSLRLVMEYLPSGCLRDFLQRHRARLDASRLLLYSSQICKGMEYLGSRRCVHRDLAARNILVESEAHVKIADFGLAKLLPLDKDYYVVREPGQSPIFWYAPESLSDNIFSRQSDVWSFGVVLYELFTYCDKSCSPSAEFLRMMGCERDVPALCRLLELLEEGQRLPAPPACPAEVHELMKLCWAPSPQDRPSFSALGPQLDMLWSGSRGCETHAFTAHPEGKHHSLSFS

As usually defined, the IC50 is the concentration needed to halve the response being measured. In the case of `N#Cc1cc(CN2CCC(c3nnn4cnc5[nH]ccc5c34)CC2)ccc1C(F)(F)F` [compound 243, 5-{[4-(7H-pyrrolo[3,2-e][1,2,3]triazolo[1,5-c]pyrimidin-1-yl)piperidin-1-yl]methyl}-2-(trifluoromethyl)benzonitrile], the IC50 is 0.044 µM in test [1], 0.29 µM in test [2], > 1 µM in test [3] (ATP 100 μM) and > 1 µM in test [4].
On to `N#Cc1ccc(CN2CCC(c3nnn4cnc5[nH]ccc5c34)CC2)cc1C(F)(F)F` [compound 244, 4-{[4-(7H-pyrrolo[3,2-e][1,2,3]triazolo[1,5-c]pyrimidin-1-yl)piperidin-1-yl]methyl}-2-(trifluoromethyl)benzonitrile], for which the concentration for half-maximal inhibition (IC50) is 0.0054 µM in test [1], 0.038 µM in test [2], 0.44 µM in test [3] (ATP 100 μM) and 0.79 µM in test [4].
In the same order, the values of `N#CCN1CCC(c2nnn3cnc4[nH]ccc4c23)CC1` [compound 246, 2-[4-(7H-pyrrolo[3,2-e][1,2,3]triazolo[1,5-c]pyrimidin-1-yl)piperidin-1-yl]acetonitrile] are 0.0053 µM, 0.019 µM, 0.28 µM and 0.14 µM.
Taken in the same sequence, the figures for `N#Cc1ccc(NC[C@H]2CC[C@H](c3nnn4cnc5[nH]ccc5c34)CC2)c2ccccc12` [compound 248, 4-({[trans-4-(7H-pyrrolo[3,2-e][1,2,3]triazolo[1,5-c]pyrimidin-1-yl)cyclohexyl]methyl}amino)-1-naphthonitrile] were 0.041 µM, 0.14 µM, > 1 µM and > 1 µM.
As for `Fc1ccc(NC[C@H]2CC[C@H](c3nnn4cnc5[nH]ccc5c34)CC2)cc1F` [compound 249, N-{[trans-4-(7H-pyrrolo[3,2-e][1,2,3]triazolo[1,5-c]pyrimidin-1-yl)cyclohexyl]methyl}-3,4-difluoroaniline], the IC50 in test [1] amounted to 0.017 µM; in test [2], 0.056 µM; in test [3] (ATP 100 μM), 0.49 µM; in test [4] it was 0.86 µM.
Taken in the same sequence, the figures for `Fc1cc(NC[C@H]2CC[C@H](c3nnn4cnc5[nH]ccc5c34)CC2)cc(F)c1F` [compound 250, N-{[trans-4-(7H-pyrrolo[3,2-e][1,2,3]triazolo[1,5-c]pyrimidin-1-yl)cyclohexyl]methyl}-3,4,5-trifluoroaniline] were 0.031 µM, 0.18 µM, > 1 µM and > 1 µM.
As to `Fc1ccc(NC[C@H]2CC[C@H](c3nnn4cnc5[nH]ccc5c34)CC2)cc1C(F)(F)F` [compound 251, N-{[trans-4-(7H-pyrrolo[3,2-e][1,2,3]triazolo[1,5-c]pyrimidin-1-yl)cyclohexyl]methyl}-4-fluoro-3-(trifluoromethyl)aniline], the IC50 in test [1] is 0.031 µM; in test [2], 0.2 µM; in test [3] (ATP 100 μM), > 1 µM; in test [4], > 1 µM.
As to `N#Cc1cc(NC[C@H]2CC[C@H](c3nnn4cnc5[nH]ccc5c34)CC2)ccc1F` [compound 252, 5-({[trans-4-(7H-pyrrolo[3,2-e][1,2,3]triazolo[1,5-c]pyrimidin-1-yl)cyclohexyl]methyl}amino)-2-fluorobenzonitrile], the IC50 in test [1] was 0.017 µM; in test [2], 0.06 µM; in test [3] (ATP 100 μM) it was > 1 µM; in test [4] it was > 1 µM.
On to `O=C1SCCC1NC[C@H]1CC[C@H](c2nnn3cnc4[nH]ccc4c23)CC1` (stereo partly drawn) [compound 253, 3-({[trans-4-(7H-pyrrolo[3,2-e][1,2,3]triazolo[1,5-c]pyrimidin-1-yl)cyclohexyl]methyl}amino)dihydrothiophen-2(3H)-one], for which the IC50 in test [1] is 0.0011 µM; in test [2], 0.0066 µM; in test [3] (ATP 100 μM), 0.14 µM; in test [4] it was 0.044 µM.
As for `c1cc2c(ncn3nnc([C@H]4CC[C@H](CN5CCSC5)CC4)c23)[nH]1` [compound 254, 3-{[trans-4-(7H-pyrrolo[3,2-e][1,2,3]triazolo[1,5-c]pyrimidin-1-yl)cyclohexyl]methyl}thiazolidine], the IC50 in test [1] was determined as 0.0071 µM; in test [2], 0.024 µM; in test [3] (ATP 100 μM) it was 0.53 µM; in test [4], 0.16 µM.
On to `FC(F)CNC[C@H]1CC[C@H](c2nnn3cnc4[nH]ccc4c23)CC1` [compound 255, N-{[trans-4-(7H-pyrrolo[3,2-e][1,2,3]triazolo[1,5-c]pyrimidin-1-yl)cyclohexyl]methyl}-2,2-difluoroethanamine], for which the IC50 in test [1] came out at 0.0025 µM; in test [2] it was 0.015 µM; in test [3] (ATP 100 μM), 0.24 µM; in test [4], 0.14 µM.
Regarding `FC(F)(F)CCNC[C@H]1CC[C@H](c2nnn3cnc4[nH]ccc4c23)CC1` [compound 256, N-{[trans-4-(7H-pyrrolo[3,2-e][1,2,3]triazolo[1,5-c]pyrimidin-1-yl)cyclohexyl]methyl}-3,3,3-trifluoropropan-1-amine], the IC50 in test [1] turned out to be 0.015 µM; in test [2], 0.062 µM; in test [3] (ATP 100 μM), 0.99 µM; in test [4], 0.27 µM.
For `OC1CN(C[C@H]2CC[C@H](c3nnn4cnc5[nH]ccc5c34)CC2)C1` [compound 257, 1-{[trans-4-(7H-pyrrolo[3,2-e][1,2,3]triazolo[1,5-c]pyrimidin-1-yl)cyclohexyl]methyl}azetidin-3-ol], the IC50 in test [1] was 0.0017 µM; in test [2], 0.016 µM; in test [3] (ATP 100 μM), 0.49 µM; in test [4] it was 0.049 µM.
In the same order, the values of `FC(F)(F)C1CCN(C[C@H]2CC[C@H](c3nnn4cnc5[nH]ccc5c34)CC2)CC1` [compound 258, 1-(trans-4-{[4-(trifluoromethyl)piperidin-1-yl]methyl}cyclohexyl)-7H-pyrrolo[3,2-e][1,2,3]triazolo[1,5-c]pyrimidine] are 0.012 µM, 0.081 µM, > 1 µM and 0.74 µM.
For `N#CCNC[C@H]1CC[C@H](c2nnn3cnc4[nH]ccc4c23)CC1` [compound 259, 2-({[trans-4-(7H-pyrrolo[3,2-e][1,2,3]triazolo[1,5-c]pyrimidin-1-yl)cyclohexyl]methyl}amino)acetonitrile], the IC50 in test [1] came out at 0.0021 µM; in test [2], 0.0081 µM; in test [3] (ATP 100 μM), 0.27 µM; in test [4], 0.037 µM.
In the same order, the values of `O=C1CN(C[C@H]2CC[C@H](c3nnn4cnc5[nH]ccc5c34)CC2)CCN1` [compound 260, 4-{[trans-4-(7H-pyrrolo[3,2-e][1,2,3]triazolo[1,5-c]pyrimidin-1-yl)cyclohexyl]methyl}piperazin-2-one] are 0.024 µM, 0.048 µM, > 1 µM and 0.97 µM.
Turning to `NC(=O)C1CCN(C[C@H]2CC[C@H](c3nnn4cnc5[nH]ccc5c34)CC2)CC1` [compound 261, 1-{[trans-4-(7H-pyrrolo[3,2-e][1,2,3]triazolo[1,5-c]pyrimidin-1-yl)cyclohexyl]methyl}piperidine-4-carboxamide], the IC50 was 0.023 µM in test [1], 0.091 µM in test [2], > 1 µM in test [3] (ATP 100 μM) and 0.64 µM in test [4].
Consider `N#Cc1ccc(NC[C@H]2CC[C@H](c3nnn4cnc5[nH]ccc5c34)CC2)cc1C#N` [compound 262, 4-({[trans-4-(7H-pyrrolo[3,2-e][1,2,3]triazolo[1,5-c]pyrimidin-1-yl)cyclohexyl]methyl}amino)phthalonitrile], for which the IC50 in test [1] stood at 0.0047 µM; in test [2], 0.045 µM; in test [3] (ATP 100 μM), 0.59 µM; in test [4], 0.91 µM.
In the same order, the values of `N#Cc1cc(NC[C@H]2CC[C@H](c3nnn4cnc5[nH]ccc5c34)CC2)ccc1Cl` [compound 263, 5-({[trans-4-(7H-pyrrolo[3,2-e][1,2,3]triazolo[1,5-c]pyrimidin-1-yl)cyclohexyl]methyl}amino)-2-chlorobenzonitrile] are 0.027 µM, 0.22 µM, > 1 µM and > 1 µM.
In the same order, the values of `N#CCc1ccc(NC[C@H]2CC[C@H](c3nnn4cnc5[nH]ccc5c34)CC2)cc1` [compound 264, 2-[4-({[trans-4-(7H-pyrrolo[3,2-e][1,2,3]triazolo[1,5-c]pyrimidin-1-yl)cyclohexyl]methyl}amino)phenyl]acetonitrile] are 0.011 µM, 0.032 µM, > 1 µM and > 1 µM.
With `OC[C@H]1CCCN1C[C@H]1CC[C@H](c2nnn3cnc4[nH]ccc4c23)CC1` [compound 265, ((R)-1-{[trans-4-(7H-pyrrolo[3,2-e][1,2,3]triazolo[1,5-c]pyrimidin-1-yl)cyclohexyl]methyl}pyrrolidin-2-yl)methanol], the IC50 in test [1] is 0.046 µM; in test [2] it was 0.18 µM; in test [3] (ATP 100 μM) it was > 1 µM; in test [4], > 1 µM.
As for `OC[C@@H]1CCCN1C[C@H]1CC[C@H](c2nnn3cnc4[nH]ccc4c23)CC1` [compound 266, ((S)-1-{[trans-4-(7H-pyrrolo[3,2-e][1,2,3]triazolo[1,5-c]pyrimidin-1-yl)cyclohexyl]methyl}pyrrolidin-2-yl)methanol], the IC50 in test [1] was 0.025 µM; in test [2], 0.11 µM; in test [3] (ATP 100 μM), > 1 µM; in test [4], 0.35 µM.
For the compound `FC(F)(Br)CNC[C@H]1CC[C@H](c2nnn3cnc4[nH]ccc4c23)CC1` [compound 269, N-{[trans-4-(7H-pyrrolo[3,2-e][1,2,3]triazolo[1,5-c]pyrimidin-1-yl)cyclohexyl]methyl}-2-bromo-2,2-difluoroethanamine], the IC50 in test [1] came out at 0.0013 µM; in test [2] it was 0.012 µM; in test [3], 0.057 µM; in test [4], 0.1 µM.
